Test results as given in patent US7462600B2, “Macrolides” (Pfizer Inc, priority 2004, dated 2008).
Converted amounts (≈) assume the structure as drawn.

Tests used:
Type in all cases: cell-based
[1] = system: Streptococcus pneumoniae 1175; details: S. pneumoniae 1175 (mefA); microtiter broth dilution
Method in brief: (§1)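 Stock solutions of 40 mg/ml in DMSO were used. MIC values came from microtiter-tray broth dilution following NCCLS M100-S14 guidelines.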

[2] = system: Streptococcus pneumoniae 1095; details: S. pneumoniae 1095 (ermB); microtiter broth dilution
Method in brief: as §1

[3] = system: Streptococcus pyogenes 1079; assay: MIC, microtiter broth dilution (NCCLS M100-S14), S. pyogenes 1079 (ermB); details: S. pyogenes 1079 (ermB)
Method in brief: as §1

[4] = system: Streptococcus pneumoniae 1016; assay: MIC, microtiter broth dilution (NCCLS M100-S14), S. pneumoniae 1016 (susceptible); details: S. pneumoniae 1016 (susceptible)
Method in brief: as §1

[5] = system: Haemophilus influenzae 1218; assay: MIC, microtiter broth dilution (NCCLS M100-S14), H. influenzae 1218 (susceptible); details: H. influenzae 1218 (susceptible)
Method in brief: as §1

Structure (SMILES) | MIC S. pneumo. 1175 [1] [µg/mL] | MIC S. pneumo. 1095 [2] [µg/mL] | MIC S. pyogenes 1079 [3] [µg/mL] | MIC S. pneumo. 1016 [4] [µg/mL] | MIC H. influenzae 1218 [5] [µg/mL]
CC[C@H]1OC(=O)[C@H](C)C(=O)[C@H](C)[C@@H](O[C@@H]2O[C@H](C)C[C@H](N(C)C)[C@H]2O)[C@](C)(OC)C[C@@H](C)C(=O)[C@H](C)[C@H]2N(CC3(O)CN(C(=O)c4cn5ccccc5n4)C3)C(=O)O[C@]12C.O=CO [7.29] | 8 | 0.25 | >64.00 | <0.06 | 1
CC[C@H]1OC(=O)[C@H](C)C(=O)[C@H](C)[C@@H](O[C@@H]2O[C@H](C)C[C@H](N(C)C)[C@H]2O)[C@](C)(OC)C[C@@H](C)C(=O)[C@H](C)[C@H]2N(CC3(O)CN(C(=O)c4cc5ccccn5n4)C3)C(=O)O[C@]12C.O=CO [7.30] | 0.25 | 0.25 | >64.00 | <0.06 | 8
CC[C@H]1OC(=O)[C@H](C)C(=O)[C@H](C)[C@@H](O[C@@H]2O[C@H](C)C[C@H](N(C)C)[C@H]2O)[C@](C)(OC)C[C@@H](C)C(=O)[C@H](C)[C@H]2N(CC3(O)CN(C(=O)c4ccc(-n5cccn5)nc4)C3)C(=O)O[C@]12C.O=CO [7.31] | 0.12 | 4 | >64.00 | <0.06 | 8
CC[C@H]1OC(=O)[C@H](C)C(=O)[C@H](C)[C@@H](O[C@@H]2O[C@H](C)C[C@H](N(C)C)[C@H]2O)[C@](C)(OC)C[C@@H](C)C(=O)[C@H](C)[C@H]2N(CC3(O)CN(C(=O)c4cc5ncccc5[nH]4)C3)C(=O)O[C@]12C.O=CO [7.32] | 2 | <0.06 | >64.00 | <0.06 | 2
CCC1OC(=O)C(C)C(=O)C(C)C(OC2OC(C)CC(N(C)C)C2O)C(C)(OC)CC(C)C(=O)C(C)C2N(CC3CCCN3Cc3ccno3)C(=O)OC12C (stereo not drawn) [10.01] | 0.5 (≈ 0.644 µM) | 0.25 (≈ 0.322 µM) | >64.00 | <0.06 | 1 (≈ 1.29 µM)
CCC1OC(=O)C(C)C(=O)C(C)C(OC2OC(C)CC(N(C)C)C2O)C(C)(OC)CC(C)C(=O)C(C)C2N(CC3CCCN3Cc3c[nH]nn3)C(=O)OC12C (stereo not drawn) [10.02] | 2 (≈ 2.57 µM) | 0.25 (≈ 0.322 µM) | >64.00 | <0.06 | 1 (≈ 1.29 µM)
CCC1OC(=O)C(C)C(=O)C(C)C(OC2OC(C)CC(N(C)C)C2O)C(C)(OC)CC(C)C(=O)C(C)C2N(CC3CCCN3Cc3cccc4cnccc34)C(=O)OC12C (stereo not drawn) [10.03] | 0.25 (≈ 0.299 µM) | 0.25 (≈ 0.299 µM) | 64 (≈ 76.5 µM) | <0.06 | 8 (≈ 9.56 µM)
CCC1OC(=O)C(C)C(=O)C(C)C(OC2OC(C)CC(N(C)C)C2O)C(C)(OC)CC(C)C(=O)C(C)C2N(CC3CCCN3Cc3ccnc4ccccc34)C(=O)OC12C (stereo not drawn) [10.04] | <0.06 | <0.06 | 16 (≈ 19.1 µM) | <0.06 | 0.5 (≈ 0.597 µM)
CCC1OC(=O)C(C)C(=O)C(C)C(OC2OC(C)CC(N(C)C)C2O)C(C)(OC)CC(C)C(=O)C(C)C2N(CC3CCCN3Cc3cccc4cccnc34)C(=O)OC12C (stereo not drawn) [10.05] | 0.12 (≈ 0.143 µM) | <0.06 | >64.00 | <0.06 | 4 (≈ 4.78 µM)
CCC1OC(=O)C(C)C(=O)C(C)C(OC2OC(C)CC(N(C)C)C2O)C(C)(OC)CC(C)C(=O)C(C)C2N(CC3CCCN3C(=O)c3ccc4ncccc4c3)C(=O)OC12C (stereo not drawn) [10.06] | 0.12 (≈ 0.141 µM) | <0.06 | 64 (≈ 75.2 µM) | <0.06 | 2 (≈ 2.35 µM)
CCC1OC(=O)C(C)C(=O)C(C)C(OC2OC(C)CC(N(C)C)C2O)C(C)(OC)CC(C)C(=O)C(C)C2N(CC3CCCN3C(=O)c3cnc4ccccc4c3)C(=O)OC12C (stereo not drawn) [10.07] | 0.25 (≈ 0.294 µM) | <0.06 | >64.00 | <0.06 | 2 (≈ 2.35 µM)
CCC1OC(=O)C(C)C(=O)C(C)C(OC2OC(C)CC(N(C)C)C2O)C(C)(OC)CC(C)C(=O)C(C)C2N(CC3CCCN3C(=O)c3ccc4ccccc4n3)C(=O)OC12C (stereo not drawn) [10.08] | 2 (≈ 2.35 µM) | <0.06 | >64.00 | <0.06 | 2 (≈ 2.35 µM)
CCC1OC(=O)C(C)C(=O)C(C)C(OC2OC(C)CC(N(C)C)C2O)C(C)(OC)CC(C)C(=O)C(C)C2N(CC3CCCN3C(=O)c3cc4ccccc4cn3)C(=O)OC12C.O=CO (stereo not drawn) [10.09] | 1 | <0.06 | >64.00 | <0.06 | 2
CCC1OC(=O)C(C)C(=O)C(C)C(OC2OC(C)CC(N(C)C)C2O)C(C)(OC)CC(C)C(=O)C(C)C2N(CC3CCCN3C(=O)c3ccnc4ccccc34)C(=O)OC12C.O=CO (stereo not drawn) [10.10] | 1 | <0.06 | >64.00 | <0.06 | 4
CCC1OC(=O)C(C)C(=O)C(C)C(OC2OC(C)CC(N(C)C)C2O)C(C)(OC)CC(C)C(=O)C(C)C2N(CC3CCCN3C(=O)c3cccc4cccnc34)C(=O)OC12C.O=CO (stereo not drawn) [10.11] | 4 | 0.5 | >64.00 | <0.06 | 16
CCC1OC(=O)C(C)C(=O)C(C)C(OC2OC(C)CC(N(C)C)C2O)C(C)(OC)CC(C)C(=O)C(C)C2N(CC3CCCN3C(=O)c3ccc4nccnc4c3)C(=O)OC12C.O=CO (stereo not drawn) [10.12] | 0.12 | <0.06 | 32 | <0.06 | 2
CCC1OC(=O)C(C)C(=O)C(C)C(OC2OC(C)CC(N(C)C)C2O)C(C)(OC)CC(C)C(=O)C(C)C2N(CC3CCCN3C(=O)c3ccc(-n4cccn4)nc3)C(=O)OC12C.O=CO (stereo not drawn) [10.13] | 0.5 | 0.5 | >64.00 | <0.06 | 16
CCC1OC(=O)C(C)C(=O)C(C)C(OC2OC(C)CC(N(C)C)C2O)C(C)(OC)CC(C)C(=O)C(C)C2N(CC3CCCN3C(=O)c3ccc4cccnc4c3)C(=O)OC12C.O=CO (stereo not drawn) [10.15] | 0.25 | <0.06 | >64.00 | <0.06 | 2
CCC1OC(=O)C(C)C(=O)C(C)C(OC2OC(C)CC(N(C)C)C2O)C(C)(OC)CC(C)C(=O)C(C)C2N(CC3CCCN3C(=O)c3ccc4cccnc4n3)C(=O)OC12C.O=CO (stereo not drawn) [10.16] | 0.25 | <0.06 | >64.00 | <0.06 | 0.25
CCC1OC(=O)C(C)C(=O)C(C)C(OC2OC(C)CC(N(C)C)C2O)C(C)(OC)CC(C)C(=O)C(C)C2N(CC3CCCN3C(=O)c3nccc4ccccc34)C(=O)OC12C.O=CO (stereo not drawn) [10.17] | 0.12 | <0.06 | >64.00 | <0.06 | 0.5
CCC1OC(=O)C(C)C(=O)C(C)C(OC2OC(C)CC(N(C)C)C2O)C(C)(OC)CC(C)C(=O)C(C)C2N(CC3CCCN3C(=O)c3cncc4ccccc34)C(=O)OC12C.O=CO (stereo not drawn) [10.20] | 0.12 | <0.06 | 64 | <0.06 | 2
CCC1OC(=O)C(C)C(=O)C(C)C(OC2OC(C)CC(N(C)C)C2O)C(C)(OC)CC(C)C(=O)C(C)C2N(CC3CCCN3C(=O)c3cnc4ccccc4n3)C(=O)OC12C.O=CO (stereo not drawn) [10.21] | 0.12 | <0.06 | >64.00 | <0.06 | 2
CC[C@H]1OC(=O)[C@H](C)C(=O)[C@H](C)[C@@H](O[C@@H]2O[C@H](C)C[C@H](N(C)C)[C@H]2O)[C@](C)(OC)C[C@@H](C)C(=O)[C@H](C)[C@H]2N(C[C@H]3CCCN3C(=O)c3cccc4ncsc34)C(=O)O[C@]12C.O=CO [10.22] | 2 | 0.12 | 64 | <0.06 | 2.5
CCC1OC(=O)C(C)C(=O)C(C)C(OC2OC(C)CC(N(C)C)C2O)C(C)(OC)CC(C)C(=O)C(C)C2N(CC3CCCN3C(=O)c3cccc4ncoc34)C(=O)OC12C (stereo not drawn) [10.23] | 1 (≈ 1.19 µM) | <0.06 | >64.00 | <0.06 | 8 (≈ 9.51 µM)
